The results in this text go back to article PMC5847527, “Identification of a novel 2-oxindole fluorinated derivative as in vivo antitumor agent for prostate cancer acting via AMPK activation” (Scientific Reports, 2018).

The structures appear in SMILES notation.

Assay [1] deals with PC-3 cells. Nature of the assay: Cell viability by MTT assay, PC-3. The format is cell-based, human. On the procedure: Figure 3 Comparison of the effect of 2-oxindole fluorinated derivatives on the proliferation of human prostate cancer cells. (A) Normal (PTN2 and RWPE-1) and cancer (PC3,DU145 and LNCaP) prostate cells were treated with different doses of the compounds for 24 hours and cell viability was monitored by MTT assay. […] (C) PC-3, DU145 and LNCaP cells were treated with 25 µM of compound 8c for different times. Values were normalized with the control and represent the mean ± SD of at least three independent experiments. *p < 0.05 and **p < 0.01 compared to control by the Student’s - test.
Human prostate cancer epithelial PC-3, DU145 and LNCaP and human prostate normal RWPE-1 cells were purchased from American Type Culture Collection (ATCC CRL-1435 CRL-1740 and CRL 11609 respectively) (Rockville, MD, USA). The human prostate normal PNT2 cell line was purchased to ECACC (European Collection of Cell cultures, Salisbury, SP4 0JG, UK). Cells were routinely grown in RPMI 1640 medium supplemented with 100 IU/ml penicillin G sodium, 100 µg/ml streptomycin sulfate, 0.25 µg/ml amphotericin B (Invitrogen, Paisley, UK) and 10% fetal calf serum. Cells were used at passages between 10–20. For treatment experiments, cells were plated and grown over night, the medium was then replaced with serum-free RPMI 1640 for 24 hours and then incubated with different doses of the compounds for the indicated times.
Cell viability was determined by 3-(4,5-dimethylthiazol-2-yl)-2,5-diphenyltetrazolium bromide (MTT) (Sigma-Aldrich) method. In brief, a total of 5000 cells/well were seeded into 12-well plate in a final volume of 1 mL. After treatments, 20 µl MTT solution (5 mg/ml in PBS) was added to the medium and cells were incubated at 37 °C for 4 h. Then, the supernatant was discarded and isopropanol was added to dissolve the formazan crystals. Treatments were carried out in triplicate. The optical density in each well was evaluated by measurement of absorbance at 490 and 650 nm using a microplate reader (ELX 800 Bio-Tek Intruments, INC). IC50 values were calculated using GraphPad Prism vs 6.0 (GraphPad Software, Inc, La Jolla, CA, USA). Cell viability was also determined by counting viable and dead cells by Trypan blue staining. Trypan blue positive and negative cells were counted using a Countess^TM automated cell counter (Invitrogen, Carlsbad, CA, USA). Results were expressed in relation to total number of cells counted.

In assay [2] the test system is PC-3 cells. Nature of the assay: Cell cycle analysis by flow cytometry (Propidium Iodide), PC-3. The format is cell-based, human. To be noted: PC-3, 24 h, 25 μM and 50 μM tested (concentration of this value not stated). As for the experimental part: For that, we treated PC-3 and LNCaP cells with 25 μM and 50 μM of compound 8c for 24 h and performed cell cycle analysis by flow cytometry using Propidium Iodide (PI). […] It is worthy to note that when PC-3 cells were treated with compound 8c, 80% of cells were in subG0 phase (Fig. 4A).
Figure 4 Cell Cycle analysis in 8c-treated prostate cancer cells. (A) PC-3 and LNCaP cells were treated with compound 8c for 24 hours and cell cycle analysis was analyzed by flow cytometry using Propidium Iodide (PI). Percentage of cells in subG0, G1, S, and G2/M phases is indicated in the histogram. (B) Levels of Cyclin D1, p-p53, p53, p21 and cleaved Caspase 3 (17 kDa fragment) were determined by Western blot. Upper panel, representative Western blot of two different experiments. β-tubulin (β-Tub) serves as a loading control. Lower panel, the densitometric analyses of bands represented as the mean ± SD of the two different experiments. *p < 0.05 and **p < 0.01 compared with the control group by the Student’s t-test.
Flow cytometry was used to detect the distribution of cell cycle. After being cultivated with the treatment, 10^5 cells in 35 mm culture dish were harvested in 0.35% trypsin, collected and fixed with 70% cold ethanol at 4 °C for 1 h. Then, cells were centrifuged at 1500 g for 5 min and incubated in 0.5 ml PBS containing 0.1 mg/ml RNase for 30 min at 37 °C. […]
In general terms: Flow cytometry measures light scatter and fluorescence of single cells or particles in a stream.

A further assay concerns PC-3 xenograft tumors. Nature of the assay: PC-3 xenograft tumor growth in nude mice. To be noted: 5 mg/Kg daily, 15 days. The format is in vivo. From the text: To validate the therapeutic value of the compound 8c against castration-resistant prostate cancer a murine xenograft model was employed. Due to the potent effect of compound 8c on the aggressive PC-3 cell line and in order to avoid unnecessary wasting of animals according to the 3 Rs guidelines (reduction, replacement, refinement) for the use of animals in research, we only use PC-3 cells for the in vivo studies. PC-3 tumors were induced in nude mice by subcutaneous injection of cells in the right flank of the mouse. When tumors reached a 70 mm^3 volume, mice were daily treated with 5 mg/Kg of compound 8c. In vehicle-treated mice, an increase in tumor growth volume was observed during the course of the study and at the end of experimentation (Fig. 8A).
Figure 8 Inhibition of prostate tumor xenograft growth in vivo by compound 8c. […]
Male immunodeficient nude-Foxn1 (nu/nu) mice (Envigo RMS, Barcelona, Spain), 4 to 6 week old, were used for all xenograft studies. […] Tumors were measured with external calipers and volume was calculated by the modified ellipsoidal formula as volume = length × (width)^2 × 0.52 mm^3 [52],[53]. At the end of the study, the mice were sacrificed by placing them in a CO2 gas-filled chamber, and the excised tumors were recovered and homogenized in lysis buffer for protein quantification and Western blotting.

A word on the IC50: it is the point on the concentration scale where inhibition reaches its midpoint. A low value points to higher potency. `O=C1Nc2ccccc2C1(F)Cc1ccc(-c2ccccc2)o1` (centres unmarked) [Compound 8c, 3-fluoro-3-((5-phenylfuran-2-yl)methyl)indolin-2-one] came in with an IC50 with PC-3 cells [1] (Homo sapiens, PC-3, MTT, 24 hours) of 18 µM. Moreover, the “inhibitory efficacy on cells viability at 50 μM” value in the assay on PC-3 cells [1] (PC-3, 50 μM) was found to be 84%. For the same compound, the “cells in subG0 phase” value with PC-3 cells [2] came out at 80%. The “AMPK activation, ACC phosphorylation, Cyclin D1 and procaspase-3 levels in xenograft tumors” value in the assay on PC-3 xenograft tumors (Western blot of tumors) is “promoted AMPK activation, increased ACC phosphorylation, decreased Cyclin D1 and decreased procaspase-3 levels”. Further, in the assay on PC-3 xenograft tumors (subcutaneously, nude mice, vs vehicle), the xenograft tumor growth entry is reported as “significantly reduced tumor growth”.
